Reference: patent US9920010B2, “CXCR7 receptor modulators” (IDORSIA PHARMACEUTICALS LTD, priority 2013, dated 2018)

Biological target: T1, CXCR7 (Homo sapiens, UniProt P25106)
T1 construct: host or cells: CHO-K1 (PathHunter CHO-K1 CXCR7 b-arrestin cell line, stably transfected)
Assay: PathHunter CHO-K1 CXCR7 b-arrestin recruitment assay (CXCR7 agonistic activity)
Assay type: cell-based
Details: PathHunter CHO-K1 CXCR7 b-arrestin cell line
Method: The CXCl12 receptor and CXCR7 agonistic activities of the compounds of formula (I) are determined in accordance with the following experimental method.
The assay is using the PathHunter™ CHO-K1 CXCR7 b-arrestin cell line from DiscoverX. The system is based on the Enzyme Fragment Complementation Technology. Two complementing fragments of the b-galactosidase enzyme are expressed within stably transfected cells. The larger portion of b-gal, termed EA for Enzyme Acceptor, is fused to the C-terminus of b-arrestin 2. The smaller fragment, termed ProLink™ tag, is fused to CXCR7 at the C-terminus. Upon activation, b-arrestin is recruited which forces the interaction of ProLink and EA, allowing complementation of the two fragments of b-gal and the formation of a functional enzyme which is capable of hydrolysing the substrate and generating a chemiluminescent signal.
CHO-K1 CXCR7 b-arrestin cells are detached from culture dishes with a cell dissociation buffer (Invitrogen, #13151-014) and collected in growing medium (F12 HAMS 90% (v/v)/FCS 10% (v/v), Penicillin/streptomycin 1% (v/v)). 5000 cells per well (in 20 μl) are seeded in a 384 well plate (white-walled, clear bottom; BD Falcon #353274). The plate is incubated at 37° C./5% CO2 for 24 hours. Medium is then replaced by 20 μl OPTIMEM (Invitrogen #31985) for 3 to 4 hours. Test compounds are dissolved at 10 mM in DMSO and serially diluted in DMSO to 200× of the final concentration for dose response curves. Compounds are then diluted 1:33.3 in HBSS1×. 5 μl/well of HBSS1×/20 mM HEPES/0.2% BSA are added to the assay plate followed by addition of 5 μl/well of diluted compounds. CXCL12 (Peprotech #300-28A) may be used as a reference agonist. The plate is incubated for 90 minutes at 37° C. 12 μl of detection reagent (Path Hunter Detection Kit, DiscoveRx, #93-0001) is transferred to the assay plate and to the plate is incubated for 1 hour at room temperature. Luminescent signal is read in a microplate reader (FLUOstar Optima, bmg). The calculated EC50 values may fluctuate depending on the daily cellular assay performance. Fluctuations of this kind are known to those skilled in the art. Average EC50 values from several measurements are given as geometric mean values.

T1 sequence (P25106 whole entry): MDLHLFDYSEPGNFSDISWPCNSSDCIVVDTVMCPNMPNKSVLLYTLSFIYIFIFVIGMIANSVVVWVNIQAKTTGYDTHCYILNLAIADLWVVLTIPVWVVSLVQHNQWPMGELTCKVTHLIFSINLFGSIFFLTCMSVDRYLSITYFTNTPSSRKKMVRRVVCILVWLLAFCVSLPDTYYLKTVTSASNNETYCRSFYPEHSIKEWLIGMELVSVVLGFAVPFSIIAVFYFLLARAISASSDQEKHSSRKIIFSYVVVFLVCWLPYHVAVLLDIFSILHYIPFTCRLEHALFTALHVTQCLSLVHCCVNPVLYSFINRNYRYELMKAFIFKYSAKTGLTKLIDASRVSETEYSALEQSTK
T1 sequence (P32121 whole entry partner): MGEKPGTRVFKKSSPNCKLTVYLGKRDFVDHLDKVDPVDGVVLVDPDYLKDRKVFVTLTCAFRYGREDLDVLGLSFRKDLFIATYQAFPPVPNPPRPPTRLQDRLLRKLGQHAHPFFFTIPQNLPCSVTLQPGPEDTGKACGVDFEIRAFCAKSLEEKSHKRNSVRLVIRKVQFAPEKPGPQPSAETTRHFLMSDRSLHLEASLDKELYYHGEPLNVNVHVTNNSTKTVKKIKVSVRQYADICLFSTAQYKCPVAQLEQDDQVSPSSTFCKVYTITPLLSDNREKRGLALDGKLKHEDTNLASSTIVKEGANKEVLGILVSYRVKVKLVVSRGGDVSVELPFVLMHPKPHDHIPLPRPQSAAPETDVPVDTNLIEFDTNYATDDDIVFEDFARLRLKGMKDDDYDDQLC

| SMILES | EC50 [µM] |
| --- | --- |
| CC(C)(C)CCN(Cc1ccccc1C(F)(F)F)C(=O)CNc1cccc2c1CCN(CC1CC1)C2 [Example 274, 2-(2-Cyclopropylmethyl-1,2,3,4-tetrahydro-isoquinolin-5-ylamino)-N-(3,3-dimethyl-butyl)-N-(2-trifluoromethyl-benzyl)-acetamide] | 0.179 |
| C=CCN(C)CCN(Cc1ccccc1C(F)(F)F)C(=O)CCc1cccc2c1CCN(CC=C)C2 [Example 348, N-[2-(Allyl-methyl-amino)-ethyl]-3-(2-allyl-1,2,3,4-tetrahydro-isoquinolin-5-yl)-N-(2-trifluoromethyl-benzyl)-propionamide] | 0.013 |
| CCN1CCc2c(cccc2N(CC)CC(=O)N(CCN(C)C)Cc2ccccc2)C1 [Example 102, N-Benzyl-N-(2-dimethylamino-ethyl)-2-[ethyl-(2-ethyl-1,2,3,4-tetrahydro-isoquinolin-5-yl)-amino]-acetamide] | 0.37 |
| CN1CCC(N(Cc2ccccc2)C(=O)CNc2cccc3c2CCN(CC2CC2)C3)C1 (racemic) [Example 180, rac-N-Benzyl-2-(2-cyclopropylmethyl-1,2,3,4-tetrahydro-isoquinolin-5-ylamino)-N-(1-methyl-pyrrolidin-3-yl)-acetamide] | 0.008 |
| COCCN1CCc2c(cccc2NCC(=O)N(CCC(C)(C)C)Cc2ncccc2C)C1 [Example 298, N-(3,3-Dimethyl-butyl)-2-[2-(2-methoxy-ethyl)-1,2,3,4-tetrahydro-isoquinolin-5-ylamino]-N-(3-methyl-pyridin-2-ylmethyl)-acetamide] | 0.114 |
| COCCN1CCc2c(cccc2NCC(=O)N(CCN(C)C(=O)OC(C)(C)C)Cc2ccccc2C(F)(F)F)C1 [Example 297, {2-[{2-[2-(2-Methoxy-ethyl)-1,2,3,4-tetrahydro-isoquinolin-5-ylamino]-acetyl}-(2-trifluoromethyl-benzyl)-amino]-ethyl}-methyl-carbamic acid tert-butyl ester] | 0.461 |
| COCCN1CCc2c(cccc2NCC(=O)N(Cc2ccccc2C(F)(F)F)CC2(C)COC2)C1 [Example 303, 2-[2-(2-Methoxy-ethyl)-1,2,3,4-tetrahydro-isoquinolin-5-ylamino]-N-(3-methyl-oxetan-3-ylmethyl)-N-(2-trifluoromethyl-benzyl)-acetamide] | 0.246 |
| CNC(=O)N1CCc2cccc(NCC(=O)N(CCN(C)C)Cc3ccccc3C(F)(F)F)c2C1 [Example 547, 8-({[(2-Dimethylamino-ethyl)-(2-trifluoromethyl-benzyl)-carbamoyl]-methyl}-amino)-3,4-dihydro-1H-isoquinoline-2-carboxylic acid methylamide] | 0.015 |
| CC(C)(O)CN(Cc1ncccc1Br)C(=O)CNc1cccc2c1C(C)(C)CN(CC1CC1)C2 [Example 576, N-(3-Bromo-pyridin-2-ylmethyl)-2-(2-cyclopropylmethyl-4,4-dimethyl-1,2,3,4-tetrahydro-isoquinolin-5-ylamino)-N-(2-hydroxy-2-methyl-propyl)-acetamide] | 0.006 |
| O=C1CCCN1CCN(Cc1ccccc1C(F)(F)F)C(=O)CNc1cccc2c1CCN(CC1CC1)C2 [Example 63, 2-(2-Cyclopropylmethyl-1,2,3,4-tetrahydro-isoquinolin-5-ylamino)-N-[2-(2-oxo-pyrrolidin-1-yl)-ethyl]-N-(2-trifluoromethyl-benzyl)-acetamide] | 0.019 |
| COCCN1CCc2c(cccc2NCC(=O)N(CCN(C)C)Cc2ncccc2C(F)(F)F)C1 [Example 371, N-(2-Dimethylamino-ethyl)-2-[2-(2-methoxy-ethyl)-1,2,3,4-tetrahydro-isoquinolin-5-ylamino]-N-(3-trifluoromethyl-pyridin-2-ylmethyl)-acetamide] | 0.016 |
| O=C(CNc1cccc2c1CCN(CC1CC1)C2)N(CCN1CCCCC1)Cc1ccccc1C(F)(F)F [Example 217, 2-(2-Cyclopropylmethyl-1,2,3,4-tetrahydro-isoquinolin-5-ylamino)-N-(2-piperidin-1-yl-ethyl)-N-(2-trifluoromethyl-benzyl)-acetamide] | 0.002 |
| O=C(CNc1cccc2c1CCN(CC1CC1)C2)N(CCN1CCCC(F)(F)C1)Cc1ncccc1C(F)(F)F [Example 283, 2-(2-Cyclopropylmethyl-1,2,3,4-tetrahydro-isoquinolin-5-ylamino)-N-[2-(3,3-difluoro-piperidin-1-yl)-ethyl]-N-(3-trifluoromethyl-pyridin-2-ylmethyl)-acetamide] | 0.011 |
| Cc1ccc(CN(CCN(C)C)C(=O)CNc2cccc3c2CCN(CC2CC2)C3)nc1 [Example 258, 2-(2-Cyclopropylmethyl-1,2,3,4-tetrahydro-isoquinolin-5-ylamino)-N-(2-dimethylamino-ethyl)-N-(5-methyl-pyridin-2-ylmethyl)-acetamide] | 0.027 |
| COc1ccc2c(c1NCC(=O)N(CCN(C)C)Cc1ccccc1C(F)(F)F)CCN(CC1CC1)C2 [Example 89, 2-(2-Cyclopropylmethyl-6-methoxy-1,2,3,4-tetrahydro-isoquinolin-5-ylamino)-N-(2-dimethylamino-ethyl)-N-(2-trifluoromethyl-benzyl)-acetamide] | 0.008 |
| CN(C)CCN(Cc1ccccc1F)C(=O)CNc1cccc2c1CCN(CC1CC1)C2 [Example 38, 2-(2-Cyclopropylmethyl-1,2,3,4-tetrahydro-isoquinolin-5-ylamino)-N-(2-dimethylamino-ethyl)-N-(2-fluoro-benzyl)-acetamide] | 0.003 |
| CCN(CCN(Cc1ccccc1C(F)(F)F)C(=O)CNc1cccc2c1CCN(CC1CC1)C2)C(=O)OC(C)(C)C [Example 232, {2-[[2-(2-Cyclopropylmethyl-1,2,3,4-tetrahydro-isoquinolin-5-ylamino)-acetyl]-(2-trifluoromethyl-benzyl)-amino]-ethyl}-ethyl-carbamic acid tert-butyl ester] | 0.162 |

The remaining lines, values ahead:

| EC50 [µM] | SMILES |
| --- | --- |
| 0.017 | CN(C)CCN(Cc1ccccc1C(F)(F)F)C(=O)CNc1cccc2c1CN(C)CC2 [compound 564, N-(2-Dimethylamino-ethyl)-2-(2-methyl-1,2,3,4-tetrahydro-isoquinolin-8-ylamino)-N-(2-trifluoromethyl-benzyl)-acetamide] |
| 0.006 | CCN1CCc2cccc(NCC(=O)N(CCN(C)C)Cc3ccccc3C(F)(F)F)c2C1 [compound 555, N-(2-Dimethylamino-ethyl)-2-(2-ethyl-1,2,3,4-tetrahydro-isoquinolin-8-ylamino)-N-(2-trifluoromethyl-benzyl)-acetamide] |
| 0.029 | CCN1CCc2cccc(NCC(=O)N(CCN(C)C)Cc3ncccc3Cl)c2C1 [compound 511, N-(3-Chloro-pyridin-2-ylmethyl)-N-(2-dimethylamino-ethyl)-2-(2-ethyl-1,2,3,4-tetrahydro-isoquinolin-8-ylamino)-acetamide] |
| 0.002 | CN(CCN(Cc1ccccc1C(F)(F)F)C(=O)CNc1cccc2c1CCN(CC1CC1)C2)C1CCOC1 (racemic) [compound 448] |
| 0.388 | CCN1Cc2c(NCC(=O)N(CCN(C)C)Cc3ccccc3C(F)(F)F)cccc2C(C)(C)C1 [compound 198] |
| 0.002 | CCN1CCc2cccc(/C=C/C(=O)N(CCN(C)C)Cc3ccccc3C(F)(F)F)c2C1 [compound 550, (E)-N-(2-Dimethylamino-ethyl)-3-(2-ethyl-1,2,3,4-tetrahydro-isoquinolin-8-yl)-N-(2-trifluoromethyl-benzyl)-acrylamide] |
| 0.086 | CNCCN(Cc1ncccc1C(F)(F)F)C(=O)CNc1cccc2c1CCN(C(=O)CC(C)C)C2 [compound 416] |
| 0.042 | CNCCN(Cc1ncccc1C(F)(F)F)C(=O)CNc1cccc2c1CCN(C(=O)NC(C)(C)C)C2 [compound 432, 5-({[(2-Methylamino-ethyl)-(3-trifluoromethyl-pyridin-2-ylmethyl)-carbamoyl]-methyl}-amino)-3,4-dihydro-1H-isoquinoline-2-carboxylic acid tert-butylamide] |
| 0.032 | CCOC(=O)N1CCc2c(cccc2NCC(=O)N(CCNC)Cc2ccccc2C(F)(F)F)C1 [compound 395, 5-({[(2-Methylamino-ethyl)-(2-trifluoromethyl-benzyl)-carbamoyl]-methyl}-amino)-3,4-dihydro-1H-isoquinoline-2-carboxylic acid ethyl ester] |
| 0.001 | CC(C)N(C)CCN(Cc1ccccc1C(F)(F)F)C(=O)CNc1cccc2c1CCN(CC1CC1)C2 [compound 449, 2-(2-Cyclopropylmethyl-1,2,3,4-tetrahydro-isoquinolin-5-ylamino)-N-[2-(isopropyl-methyl-amino)-ethyl]-N-(2-trifluoromethyl-benzyl)-acetamide] |
